US9850283B2, “Macrocyclic inhibitors of the PD-1/PD-L1 and CD80(B7-1)/PD-L1 protein/protein interactions” (BRISTOL-MYERS SQUIBB COMPANY, priority 2013, dated 2017)
Like-named read-outs stand apart in the source and are kept apart here. Positions of bridges follow the written chain, without caps; N, C: chain ends. Non-standard residues stand in square brackets, D forms with d. Residues, ends and D or L forms follow the SMILES beside them. ξ: configuration not given here. Phe(4-CH2NH2) = NCc1ccc(C[C@H](N)C(=O)O)cc1; Phe(3-Cl) = N[C@@H](Cc1cccc(Cl)c1)C(=O)O; d(cisHyp) = O=C(O)[C@H]1C[C@@H](O)CN1; Bta = N[C@@H](Cc1csc2ccccc12)C(=O)O; Hyp = O=C(O)[C@@H]1C[C@@H](O)CN1; NMeF = CN[C@@H](Cc1ccccc1)C(=O)O; NMehSer = CN[C@@H](CCO)C(=O)O; NMeNle = CCCC[C@H](NC)C(=O)O; NMeA = CN[C@@H](C)C(=O)O; Dab = NCC[C@H](N)C(=O)O; Dap = NC[C@H](N)C(=O)O; ξP = O=C(O)C1CCCN1; ξC = NC(CS)C(=O)O; Sar = CNCC(=O)O

Columns and labels:
Human PD-L1/PD-1 = target: T1, Human PD-L1/PD-1 (Homo sapiens, UniProt Q9NZQ7); test: HTRF PD-1-Ig/PD-L1-His binding assay (human PD-L1); conditions: cluster symbol; read-out: HTRF IC50 cluster
T1 construct: made in house; host or cells: HEK293T
Procedure, shortened: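 Soluble PD-1-Ig binding to PD-L1-His measured by HTRF in dPBS with 0.1% BSA and 0.05% Tween-20. Detection used europium cryptate anti-Ig antibody (1 nM final) and APC anti-His antibody (20 nM final) added on top of the binding reaction.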

[1] = target: T2, LK35.2-hPD-L1 cells / PE-labeled PD-1-Ig (Homo sapiens, UniProt Q9NZQ7); test: LK35.2-hPD-L1 cell binding high-content screening assay; assay type: cell-based; conditions: cluster symbol, read-out: CBA IC50 cluster
T2 construct: expressed in transfected cells; host or cells: LK35.2 mouse B cell line
Procedure: LK35.2-hPD-L1 Cell Binding High-Content Screening Assay. Phycoerythrin (PE) was covalently linked to the Ig epitope tag of human PD-1-Ig and fluorescently-labeled PD-1-Ig was used for binding studies with a mouse B cell line (LK35.2) stably over-expressing human PD-L1 (LK35.2-hPD-L1). Briefly, 3×10^3 LK35.2-hPD-L1 cells were seeded into 384 well plates in 20 ul of RPMI supplemented with 10% fetal calf serum and cultured overnight. 125 nl of compound was added to cells, followed by 5 ul of PE-labeled PD-1-Ig (1 nM final), diluted in RPMI supplemented with 10% fetal calf serum, followed by incubation at 37° C. for 1 h. […] Cells were washed 3× in 100 ul of dPBS followed by final addition of 15 ul of dPBS. Data was collected and processed using a Cell Insight NXT High Content Imager and associated software.

[2] = cell binding assay, cell line not given
[3] = cell line of CBA not given (LK35.2-hPD-L1 or 293T-hPD-L1)

T1 sequence (Q9NZQ7 with tags, fused parts or gaps): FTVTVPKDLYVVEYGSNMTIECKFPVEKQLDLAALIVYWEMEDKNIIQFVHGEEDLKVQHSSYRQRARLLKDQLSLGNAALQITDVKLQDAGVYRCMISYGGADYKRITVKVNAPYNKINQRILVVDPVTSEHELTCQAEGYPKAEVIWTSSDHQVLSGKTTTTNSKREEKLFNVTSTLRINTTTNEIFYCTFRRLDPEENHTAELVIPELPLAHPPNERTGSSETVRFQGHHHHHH
T2 sequence (Q9NZQ7 19-290): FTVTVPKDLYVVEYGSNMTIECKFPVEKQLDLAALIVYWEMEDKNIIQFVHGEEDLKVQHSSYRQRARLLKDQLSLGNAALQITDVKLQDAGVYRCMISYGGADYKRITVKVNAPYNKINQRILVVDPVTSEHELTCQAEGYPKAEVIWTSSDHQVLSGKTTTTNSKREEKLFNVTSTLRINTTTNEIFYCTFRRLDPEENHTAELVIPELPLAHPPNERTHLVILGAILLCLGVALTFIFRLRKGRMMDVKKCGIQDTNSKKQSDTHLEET

Row | SMILES | IC50 (Human PD-L1/PD-1) [nM] | IC50 [1, 2] [nM] | IC50 [1, 3] [nM]
1 | CCCC[C@H]1C(=O)N(C)CC(=O)N[C@@H](CC(=O)O)C(=O)N[C@@H](C(C)C)C(=O)N(C)[C@@H](Cc2ccccc2)C(=O)N[C@@H](Cc2ccc(CN)cc2)C(=O)N(C)CC(=O)N[C@@H](Cc2c[nH]c3ccccc23)C(=O)N[C@@H](Cc2ccc(O)cc2)C(=O)N[C@@H](CC(C)C)C(=O)N[C@H](C(=O)NCC(N)=O)CSCC(=O)N[C@@H](Cc2cccc(Cl)c2)C(=O)N(C)[C@@H](Cc2ccccc2)C(=O)N1C [Example 3122] ({CH2CO}-[Phe(3-Cl)][NMeF][NMeNle][Sar]DV[NMeF][Phe(4-CH2NH2)][Sar]WYLCG-NH2; thioether N-13) | 6.76 to 30.3 |  | 4.78 to 72.9
2 | CCCC[C@H]1C(=O)N(C)[C@@H](CCCC)C(=O)N[C@@H](CCC(=O)O)C(=O)N[C@H](C(=O)NCC(N)=O)CSCC(=O)N[C@@H](Cc2ccc(O)cc2)C(=O)N(C)[C@@H](C)C(=O)N[C@@H](CCN)C(=O)N2CCC[C@H]2C(=O)N[C@@H](Cc2c[nH]cn2)C(=O)N[C@@H](CCC(=O)O)C(=O)N2C[C@H](O)C[C@H]2C(=O)N[C@@H](Cc2c[nH]c3ccccc23)C(=O)N[C@@H](CCCCN)C(=O)N[C@@H](Cc2c[nH]c3ccccc23)C(=O)N1C [Example 5112] ({CH2CO}-Y[NMeA][Dab]PHE[Hyp]WKW[NMeNle][NMeNle]ECG-NH2; thioether N-14) | 0.385 to 6.74 | 0.158 to 4.71 | 
3 | CCCC[C@H]1C(=O)N(C)[C@@H](CCCC)C(=O)N[C@@H](CC(=O)O)C(=O)N[C@H](C(=O)NCC(N)=O)CSCC(=O)N[C@@H](Cc2ccc(O)cc2)C(=O)N(C)[C@@H](C)C(=O)N[C@@H](CC(=O)O)C(=O)N2CCC[C@H]2C(=O)N[C@@H](Cc2c[nH]cn2)C(=O)N[C@@H](CCCNC(=N)N)C(=O)N2CCCC2C(=O)N[C@@H](Cc2c[nH]c3ccccc23)C(=O)N[C@@H](CCCNC(=N)N)C(=O)N[C@@H](Cc2c[nH]c3ccccc23)C(=O)N1C (stereo partly drawn) [Example 1201] ({CH2CO}-Y[NMeA]DPHR[ξP]WRW[NMeNle][NMeNle]DCG-NH2; thioether N-14) | 6.76 to 30.3 |  | 4.78 to 72.9
4 | CCCC[C@H]1C(=O)N(C)[C@@H](CCCC)C(=O)N[C@@H](CCCNC(=N)N)C(=O)N[C@H](C(=O)NCC(N)=O)CSCC(=O)N[C@@H](Cc2ccc(O)cc2)C(=O)N(C)[C@@H](C)C(=O)N[C@@H](CC(N)=O)C(=O)N2CCC[C@H]2C(=O)N[C@@H](CN)C(=O)N[C@@H](CCC(=O)O)C(=O)N2C[C@H](O)C[C@H]2C(=O)N[C@@H](Cc2c[nH]c3ccccc23)C(=O)N[C@@H](CO)C(=O)N[C@@H](Cc2csc3ccccc23)C(=O)N1C [Example 1128] ({CH2CO}-Y[NMeA]NP[Dap]E[Hyp]WS[Bta][NMeNle][NMeNle]RCG-NH2; thioether N-14) | 6.76 to 30.3 |  | 0.158 to 4.71

The remaining lines, values ahead:

Row | IC50 (Human PD-L1/PD-1) [nM] | IC50 [1, 2] [nM] | IC50 [1, 3] [nM] | SMILES
5 | 0.385 to 6.74 | 0.158 to 4.71 |  | CCCC[C@H]1C(=O)N(C)[C@@H](CCCC)C(=O)N[C@@H](CO)C(=O)NC(C(=O)NCC(N)=O)CSCC(=O)N[C@@H](Cc2ccc(O)cc2)C(=O)N(C)[C@@H](C)C(=O)N[C@@H](CC(N)=O)C(=O)N2CCC[C@H]2C(=O)N[C@@H](Cc2cnc[nH]2)C(=O)N[C@@H](CC(C)C)C(=O)N2C[C@H](O)C[C@H]2C(=O)N[C@@H](Cc2c[nH]c3ccccc23)C(=O)N[C@@H](CO)C(=O)N[C@@H](Cc2csc3ccccc23)C(=O)N1C (stereo partly drawn) [Example 9028] ({CH2CO}-Y[NMeA]NPHL[Hyp]WS[Bta][NMeNle][NMeNle]S[ξC]G-NH2; thioether N-14)
6 | 0.385 to 6.74 | 0.158 to 4.71 |  | CCCC[C@H]1C(=O)N(C)[C@@H](CCOC)C(=O)N[C@@H](CCCNC(=N)N)C(=O)N[C@H](C(=O)NCC(N)=O)CSCC(=O)N[C@@H](Cc2ccc(O)cc2)C(=O)N(C)[C@@H](C)C(=O)N[C@@H](CC(N)=O)C(=O)N2CCC[C@H]2C(=O)N[C@@H](Cc2cnc[nH]2)C(=O)N[C@@H](CC(C)C)C(=O)N2C[C@H](O)C[C@@H]2C(=O)N[C@@H](Cc2c[nH]c3ccccc23)C(=O)N[C@@H](CO)C(=O)N[C@@H](Cc2csc3ccccc23)C(=O)N1C [Example 9006] ({CH2CO}-Y[NMeA]NPHL[d(cisHyp)]WS[Bta][NMeNle][NMehSer](Me)RCG-NH2; thioether N-14)
